Laboratory results as given in paper PMC12030706, “Novel ^177Lu-Labeled [Thz^14]Bombesin(6–14) Derivatives with Low Pancreas Accumulation for Targeting Gastrin-Releasing Peptide Receptor-Expressing Cancer” (Pharmaceuticals, 2025).
Numbered stars: 1 amine (or outer) side, 2 acyl side, 3 side chain; on linkers, the order of the positions; unused ones are H or OH. Square brackets hold non-standard residues; d marks the D form. Peptide text beside a SMILES is read from it. * marks the point of attachment. DOTA = O=C(O)CN1CCN(CC(=O)O)CCN(CC(=O)*)CCN(CC(=O)O)CC1; NMeH = CN[C@@H](Cc1c[nH]cn1)C(=O)O; X1 = O=C(CN1CCC(N[*:1])CC1)[*:2]; Tle = CC(C)(C)[C@H](N)C(=O)O; Thz = O=C(O)[C@@H]1CSCN1

What was measured:
[1] = LogD7.4 measurement, shake flask method; assay type: physicochemical; conditions: n-octanol/DPBS pH 7.4, n = 3
Protocol: The logD7.4 values of all the ^177Lu-labeled GRPR-targeted ligands were measured using the shake flask method as previously reported. An aliquot (~2 MBq) of the radiolabeled product was added to a mixture of n-octanol (3 mL) and DPBS (3 mL, pH 7.4), followed by 1 min vortexing and 15 min centrifugation at 5000 rpm. Samples of the n-octanol (1 mL) and buffer (1 mL) layers were collected, and the activity was counted using a gamma counter. The logD7.4 values were calculated using the following equation: logD7.4=log10[countsn−octanolphase/countsbutterphase]

[2] = Ex vivo biodistribution in PC-3 tumor-bearing mice; conditions: mouse; for tissue to tissue ratio at 1 h / tissue to tissue ratio at 4 h / tissue to tissue ratio at 24 h / tissue to tissue ratio at 72 h / tissue to tissue ratio at 120 h: male, NOD.Cg-Rag1^tm1Mom Il2rg^tm1Wjl/SzJ (NRG), total radioactivity; for tissue to tissue ratio at 4 h / tissue uptake at 4 h: 4 h post-injection; for tissue to tissue ratio at 24 h / tissue uptake at 24 h: 24 h post-injection; for tissue to tissue ratio at 72 h / tissue uptake at 72 h: 72 h post-injection; for tissue to tissue ratio at 120 h / tissue uptake at 120 h: 120 h post-injection
Protocol: SPECT/CT imaging experiments were performed using an MILabs (Houten, The Netherlands) U-SPECT-II/CT scanner with a custom-made ultra-high-sensitivity big mouse collimator (2 mm pinhole size) following previously reported procedures. […] Male NOD.Cg-Rag1^tm1Mom Il2rg^tm1Wjl/SzJ (NRG) mice were used in these experiments because of their immunodeficient characteristics and excellent radiation tolerance. Mice were anaesthetized and subcutaneously implanted with 5 × 10^6 PC-3 prostate cancer cells (100 µL; 1:1 PBS/Matrigel) behind the left shoulder. SPECT/CT imaging and biodistribution studies were performed once the tumors reached a diameter of 5–8 mm, typically after approximately 4 weeks of growth.
For ex vivo biodistribution studies, the mice were injected with ~2–6 MBq of the radioligand. […] Blocking study was conducted at 1 h post-injection via co-injection of the radioligand with 100 μg of [D-Phe^6,Leu-NHEt^13,des-Met^14]Bombesin(6–14). Organs/tissues of interested were collected, weighed, and measured using an automatic gamma counter.

[3] = tumor/blood, Tumor/blood uptake ratio
[4] = tumor/kidney, Tumor/kidney uptake ratio
[5] = tumor/muscle, Tumor/muscle uptake ratio
[6] = tumor/pancreas, Tumor/pancreas uptake ratio
[7] = PC-3 tumor, Uptake in PC-3 tumor
[8] = adrenal glands, Uptake in adrenal glands

For CC(C)C[C@H](NC(=O)[C@H](Cc1cnc[nH]1)N(C)C(=O)CNC(=O)[C@@H](NC(=O)[C@H](C)NC(=O)[C@H](Cc1c[nH]c2ccccc12)NC(=O)[C@H](Cc1c[nH]cn1)NC(=O)[C@@H](Cc1ccccc1)NC(=O)CN1CCC(NC(=O)CN2CCN(CC(=O)O)CCN(CC(=O)O)CCN(CC(=O)O)CC2)CC1)C(C)(C)C)C(=O)N1CSC[C@H]1C(N)=O [[^177Lu]Lu-LW01142, metal not drawn] ({DOTA}-[X1][dF]HWA[Tle]G[NMeH]L[Thz]-NH2), the logD [1] was -2.28 ± 0.14, the tissue to tissue ratio at 1 h ([2]; tumor/blood, Tumor/blood uptake ratio, 1 h blocked (co-injected with 100 µg [D-Phe6,Leu-NHEt13,des-Met14]Bombesin(6-14))) was 3.91 ± 0.87 and the tissue to tissue ratio at 1 h ([2]; tumor/blood, Tumor/blood uptake ratio, 1 h post-injection) was 8.08 ± 0.92. It also gave a tissue to tissue ratio at 4 h [2, 3] of 162 ± 52, a tissue to tissue ratio at 24 h [2, 3] of 841 ± 162 and a tissue to tissue ratio at 72 h [2, 3] of 1620 ± 500. It also gave a tissue to tissue ratio at 120 h [2, 3] of 1800 ± 724, a tissue to tissue ratio at 1 h ([2]; tumor/kidney, Tumor/kidney uptake ratio, 1 h blocked (co-injected with 100 µg [D-Phe6,Leu-NHEt13,des-Met14]Bombesin(6-14))) of 0.7 ± 0.15 and a tissue to tissue ratio at 1 h ([2]; tumor/kidney, Tumor/kidney uptake ratio, 1 h post-injection) of 1.95 ± 0.04. The tissue to tissue ratio at 4 h [2, 4] was 2.14 ± 0.26, the tissue to tissue ratio at 24 h [2, 4] was 2.88 ± 0.84 and the tissue to tissue ratio at 72 h [2, 4] was 7.34 ± 1.83. The tissue to tissue ratio at 120 h [2, 4] was 7.46 ± 1.11, the tissue to tissue ratio at 1 h ([2]; tumor/muscle, Tumor/muscle uptake ratio, 1 h blocked (co-injected with 100 µg [D-Phe6,Leu-NHEt13,des-Met14]Bombesin(6-14))) was 25.2 ± 10.1 and the tissue to tissue ratio at 1 h ([2]; tumor/muscle, Tumor/muscle uptake ratio, 1 h post-injection) was 60.1 ± 5.97. For the same molecule, the tissue to tissue ratio at 4 h [2, 5] was 454 ± 53.3, the tissue to tissue ratio at 24 h [2, 5] was 672 ± 161 and the tissue to tissue ratio at 72 h [2, 5] was 736 ± 189. The tissue to tissue ratio at 120 h [2, 5] was 588 ± 92.8, the tissue to tissue ratio at 1 h ([2]; tumor/pancreas, Tumor/pancreas uptake ratio, 1 h blocked (co-injected with 100 µg [D-Phe6,Leu-NHEt13,des-Met14]Bombesin(6-14))) was 2.79 ± 0.69 and the tissue to tissue ratio at 1 h ([2]; tumor/pancreas, Tumor/pancreas uptake ratio, 1 h post-injection) was 3.06 ± 0.45. The tissue to tissue ratio at 4 h [2, 6] was 7.53 ± 0.35, the tissue to tissue ratio at 24 h [2, 6] was 6.78 ± 0.88 and the tissue to tissue ratio at 72 h [2, 6] was 6.18 ± 0.6. It also gave a tissue to tissue ratio at 120 h [2, 6] of 4.08 ± 1, a tissue uptake at 1 h ([2]; PC-3 tumor, 100 ug, Uptake in PC-3 tumor, 1 h blocked (co-injected with 100 µg [D-Phe6,Leu-NHEt13,des-Met14]Bombesin(6-14))) of 5.03 ± 0.43 %ID/g and a tissue uptake at 1 h ([2]; PC-3 tumor, Uptake in PC-3 tumor, 1 h post-injection) of 13.4 ± 1.48 %ID/g. For the same molecule, the tissue uptake at 4 h [2, 7] was 11.8 ± 2.24 %ID/g, the tissue uptake at 24 h [2, 7] was 7.07 ± 1.23 %ID/g and the tissue uptake at 72 h [2, 7] was 4.18 ± 0.6 %ID/g. It also gave a tissue uptake at 120 h [2, 7] of 2.25 ± 0.71 %ID/g, a tissue uptake at 1 h ([2]; adrenal glands, 100 ug, Uptake in adrenal glands, 1 h blocked (co-injected with 100 µg [D-Phe6,Leu-NHEt13,des-Met14]Bombesin(6-14))) of 0.75 ± 0.33 %ID/g and a tissue uptake at 1 h ([2]; adrenal glands, Uptake in adrenal glands, 1 h post-injection) of 1.43 ± 0.5 %ID/g. It also gave a tissue uptake at 4 h [2, 8] of 0.59 ± 0.06 %ID/g, a tissue uptake at 24 h [2, 8] of 0.41 ± 0.08 %ID/g and a tissue uptake at 72 h [2, 8] of 0.2 ± 0.05 %ID/g. It also gave a tissue uptake at 1 h ([2]; blood, 100 ug, Uptake in blood, 1 h blocked (co-injected with 100 µg [D-Phe6,Leu-NHEt13,des-Met14]Bombesin(6-14))) of 1.34 ± 0.35 %ID/g, a tissue uptake at 1 h ([2]; blood, Uptake in blood, 1 h post-injection) of 1.67 ± 0.21 %ID/g and a tissue uptake at 4 h ([2]; blood, Uptake in blood) of 0.08 ± 0.01 %ID/g. For the same molecule, the tissue uptake at 24 h ([2]; blood, Uptake in blood) was 0.01 %ID/g, the tissue uptake at 1 h ([2]; bone, 100 ug, Uptake in bone, 1 h blocked (co-injected with 100 µg [D-Phe6,Leu-NHEt13,des-Met14]Bombesin(6-14))) was 0.13 ± 0.03 %ID/g and the tissue uptake at 4 h ([2]; bone, Uptake in bone) was 0.03 ± 0.01 %ID/g. It also gave a tissue uptake at 24 h ([2]; bone, Uptake in bone) of 0.03 ± 0.01 %ID/g, a tissue uptake at 72 h ([2]; bone, Uptake in bone) of 0.03 ± 0.01 %ID/g and a tissue uptake at 120 h ([2]; bone, Uptake in bone) of 0.02 ± 0.01 %ID/g. It also gave a tissue uptake at 1 h ([2]; brain, 100 ug, Uptake in brain, 1 h blocked (co-injected with 100 µg [D-Phe6,Leu-NHEt13,des-Met14]Bombesin(6-14))) of 0.03 ± 0.01 %ID/g, a tissue uptake at 1 h ([2]; brain, Uptake in brain, 1 h post-injection) of 0.03 ± 0.01 %ID/g and a tissue uptake at 4 h ([2]; brain, Uptake in brain) of 0.01 %ID/g. The tissue uptake at 1 h ([2]; fat, 100 ug, Uptake in fat, 1 h blocked (co-injected with 100 µg [D-Phe6,Leu-NHEt13,des-Met14]Bombesin(6-14))) was 0.14 ± 0.04 %ID/g, the tissue uptake at 1 h ([2]; fat, Uptake in fat, 1 h post-injection) was 0.11 ± 0.04 %ID/g and the tissue uptake at 4 h ([2]; fat, Uptake in fat) was 0.02 ± 0.01 %ID/g. It also gave a tissue uptake at 24 h ([2]; fat, Uptake in fat) of 0.01 %ID/g, a tissue uptake at 72 h ([2]; fat, Uptake in fat) of 0.01 %ID/g and a tissue uptake at 1 h ([2]; heart, 100 ug, Uptake in heart, 1 h blocked (co-injected with 100 µg [D-Phe6,Leu-NHEt13,des-Met14]Bombesin(6-14))) of 0.43 ± 0.14 %ID/g. It also gave a tissue uptake at 1 h ([2]; heart, Uptake in heart, 1 h post-injection) of 0.45 ± 0.06 %ID/g, a tissue uptake at 24 h ([2]; heart, Uptake in heart) of 0.02 ± 0.01 %ID/g and a tissue uptake at 72 h ([2]; heart, Uptake in heart) of 0.02 %ID/g. The tissue uptake at 120 h ([2]; heart, Uptake in heart) was 0.01 %ID/g, the tissue uptake at 1 h ([2]; kidneys, 100 ug, Uptake in kidneys, 1 h blocked (co-injected with 100 µg [D-Phe6,Leu-NHEt13,des-Met14]Bombesin(6-14))) was 7.44 ± 1.71 %ID/g and the tissue uptake at 24 h ([2]; kidneys, Uptake in kidneys) was 2.64 ± 0.94 %ID/g. The tissue uptake at 72 h ([2]; kidneys, Uptake in kidneys) was 0.6 ± 0.17 %ID/g and the tissue uptake at 120 h ([2]; kidneys, Uptake in kidneys) was 0.3 ± 0.07 %ID/g.
